Like-named read-outs stand apart in the source and are kept apart here.
Target: Human factor D (Homo sapiens (Human), UniProt P00746)
Test: Human Factor D Assay
Type: biochemical
Procedure, shortened: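 Serum-purified factor D (80 nM final) preincubated 5 min at room temperature with compound in 50 mM Tris, 1M NaCl, pH 7.5. Z-L-Lys-SBzl and DTNB added at 100 μM each; OD405 followed kinetically over 30 min. IC50 by non-linear regression of % inhibition.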

[1] = human factor D 80 nM, substrate Z-L-Lys-SBzl, DTNB

Human factor D, sequence (P00746 26-253): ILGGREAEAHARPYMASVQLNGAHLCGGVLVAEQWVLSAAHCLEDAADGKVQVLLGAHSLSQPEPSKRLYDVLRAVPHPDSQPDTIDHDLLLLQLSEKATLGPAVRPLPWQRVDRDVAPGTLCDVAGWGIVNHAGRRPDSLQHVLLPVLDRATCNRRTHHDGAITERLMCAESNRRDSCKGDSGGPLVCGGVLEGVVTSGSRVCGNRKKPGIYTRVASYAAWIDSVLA

| SMILES | IC50 [1] | IC50 |
| --- | --- | --- |
| NC(=O)c1nn(CC(=O)N2C[C@H](F)C[C@H]2C(=O)Nc2nnc(-c3ccc(Cl)c(Cl)c3)s2)c2ccc(-c3ccnnc3)cc12 [Compound 69, 1-(2-((2S,4R)-2-(5-(3,4-dichlorophenyl)-1,3,4-thiadiazol-2-ylcarbamoyl)-4-fluoropyrrolidin-1-yl)-2-oxoethyl)-5-(pyridazin-4-yl)-1H-indazole-3-carboxamide] | > 10000 nM | – |
| CC(=O)c1cn(CC(=O)N2C[C@H](F)C[C@H]2C(=O)NCc2cccnc2)c2ccc(-c3ccnnc3)cc12 [Compound 59, (2S,4R)-1-(2-(3-acetyl-5-(pyridazin-4-yl)-1H-indol-1-yl)acetyl)-4-fluoro-N-(pyridin-3-ylmethyl)pyrrolidine-2-carboxamide] | – | 1000 to 10000 nM |
| CC(=O)c1cn(CC(=O)N2C[C@H](F)C[C@H]2C(=O)Nc2cccc3c2NC(=O)C(C)O3)c2ccc(-c3ccnnc3)cc12 (stereo partly drawn) [Compound 153, (2S,4R)-1-(2-(3-acetyl-5-(pyridazin-4-yl)-1H-indol-1-yl)acetyl)-4-fluoro-N-(2-methyl-3-oxo-3,4-dihydro-2H-benzo[b][1,4]oxazin-5-yl)pyrrolidine-2-carboxamide] | > 10000 nM | – |
| CC(=O)c1cn(CC(=O)N2C[C@H](F)C[C@H]2C(=O)Nc2cccc(-c3ccccc3Cl)c2F)c2ccc(-c3cnnc(C)c3)cc12 [Compound 121, (2S,4R)-1-(2-(3-acetyl-5-(6-methylpyridazin-4-yl)-1H-indol-1-yl)acetyl)-N-(2′-chloro-2-fluorobiphenyl-3-yl)-4-fluoropyrrolidine-2-carboxamide] | < 1000 nM | – |
| CC(=O)c1cn(CC(=O)N2C[C@H](F)C[C@H]2C(=O)Nc2cccc(-c3ccccc3Cl)c2F)c2ccc(N3CCN(C(C)=O)CC3)cc12 [Compound 16, (2S,4R)-1-(2-(3-acetyl-5-(4-acetylpiperazin-1-yl)-1H-indol-1-yl)acetyl)-N-(2′-chloro-2-fluorobiphenyl-3-yl)-4-fluoropyrrolidine-2-carboxamide] | < 1000 nM | – |
| CC(=O)c1cn(CC(=O)N2C[C@H](F)C[C@H]2C(=O)Nc2noc(-c3ccccc3Cl)n2)c2ccc(-c3ccnnc3)cc12 [Compound 182, (2S,4R)-1-(2-(3-acetyl-5-(pyridazin-4-yl)-1H-indol-1-yl)acetyl)-N-(5-(2-chlorophenyl)-1,2,4-oxadiazol-3-yl)-4-fluoropyrrolidine-2-carboxamide] | < 1000 nM | – |
| CC(=O)c1cn(CC(=O)N2C[C@H](F)C[C@H]2C(=O)NCc2cccc(Cl)c2)c2ccc(-c3ccnnc3)cc12 [Compound 44, (2S,4R)-1-(2-(3-acetyl-5-(pyridazin-4-yl)-1H-indol-1-yl)acetyl)-N-(3-chlorobenzyl)-4-fluoropyrrolidine-2-carboxamide] | < 1000 nM | – |
| CC(=O)c1cn(CC(=O)N2[C@@H]3C[C@@H]3C[C@H]2C(=O)NCc2cccc(Cl)c2F)c2ccc(-c3cnc(C)nc3)cc12 [Compound 134, (1R,3S,5R)-2-(2-(3-acetyl-5-(2-methylpyrimidin-5-yl)-1H-indol-1-yl)acetyl)-N-(3-chloro-2-fluorobenzyl)-2-azabicyclo[3.1.0] hexane-3-carboxamide] | < 1000 nM | – |
| CC(=O)c1cn(CC(=O)N2C[C@H](F)C[C@H]2C(=O)NCc2cc(F)cc(Cl)c2)c2ccc(-c3ccnnc3)cc12 [Compound 46, (2S,4R)-1-(2-(3-acetyl-5-(pyridazin-4-yl)-1H-indol-1-yl)acetyl)-N-(3-chloro-5-fluorobenzyl)-4-fluoropyrrolidine-2-carboxamide] | < 1000 nM | – |
| NC(=O)c1nn(CC(=O)N2C[C@H](F)C[C@H]2C(=O)NCc2cccnc2)c2ccc(-c3ccnnc3)cc12 [Compound 39, 1-(2-((2S,4R)-4-fluoro-2-(pyridin-3-ylmethylcarbamoyl)pyrrolidin-1-yl)-2-oxoethyl)-5-(pyridazin-4-yl)-1H-indazole-3-carboxamide] | – | 1000 to 10000 nM |
| CC(=O)c1cn(CC(=O)N2C[C@H](F)C[C@H]2C(=O)N[C@@H]2CCC[C@H]2O)c2ccc(-c3ccnnc3)cc12 [Compound 143, (2S,4R)-1-(2-(3-acetyl-5-(pyridazin-4-yl)-1H-indol-1-yl)acetyl)-4-fluoro-N-((1R,2R)-2-hydroxycyclopentyl) pyrrolidine-2-carboxamide] | > 10000 nM | – |
| NC(=O)c1nn(CC(=O)N2C[C@H](F)C[C@H]2C(=O)Nc2cccc(OCc3ccccc3)n2)c2ccc(-c3ccnnc3)cc12 [Compound 73, 1-(2-((2S,4R)-2-(6-(benzyloxy)pyridin-2-ylcarbamoyl)-4-fluoropyrrolidin-1-yl)-2-oxoethyl)-5-(pyridazin-4-yl)-1H-indazole-3-carboxamide] | > 10000 nM | – |
| CC(=O)c1cn(CC(=O)N2C[C@H](F)C[C@H]2C(=O)Nc2cccc(Br)n2)c2ccc(-c3cnc(C)nc3)cc12 [Compound 84, (2S,4R)-1-(2-(3-acetyl-5-(2-methylpyrimidin-5-yl)-1H-indol-1-yl)acetyl)-N-(6-bromopyridin-2-yl)-4-fluoropyrrolidine-2-carboxamide] | < 1000 nM | – |
| CNc1ncc(-c2ccc3c(c2)c(C(C)=O)cn3CC(=O)N2C[C@H](F)C[C@H]2C(=O)Nc2cccc(-c3ccccc3Cl)c2F)cn1 [Compound 188, (2S,4R)-1-(2-(3-acetyl-5-(2-(methylamino)pyrimidin-5-yl)-1H-indol-1-yl)acetyl)-N-(2′-chloro-2-fluorobiphenyl-3-yl)-4-fluoropyrrolidine-2-carboxamide] | < 1000 nM | – |
| CC(=O)c1cn(CC(=O)N2C[C@H](F)C[C@H]2C(=O)Nc2nc(-c3cccc(Cl)c3)ns2)c2ccc(-c3ccnnc3)cc12 [Compound 147, (2S,4R)-1-(2-(3-acetyl-5-(pyridazin-4-yl)-1H-indol-1-yl)acetyl)-N-(3-(3-chlorophenyl)-1,2,4-thiadiazol-5-yl)-4-fluoropyrrolidine-2-carboxamide] | > 10000 nM | – |
| NC(=O)c1nn(CC(=O)N2C[C@H](F)C[C@H]2C(=O)Nc2ccc3ccccc3c2)c2ccc(-c3ccnnc3)cc12 [Compound 131, 1-(2-((2S,4R)-4-fluoro-2-(naphthalen-2-ylcarbamoyl)pyrrolidin-1-yl)-2-oxoethyl)-5-(pyridazin-4-yl)-1H-indazole-3-carboxamide] | > 10000 nM | – |
| CCN1Cc2ccc(NC(=O)[C@@H]3C[C@@H](F)CN3C(=O)Cn3nc(C(N)=O)c4cc(-c5ccnnc5)ccc43)cc2C1=O [Compound 48, 1-(2-((2S,4R)-2-(2-ethyl-3-oxoisoindolin-5-ylcarbamoyl)-4-fluoropyrrolidin-1-yl)-2-oxoethyl)-5-(pyridazin-4-yl)-1H-indazole-3-carboxamide] | > 10000 nM | – |
| CC(=O)c1cn(CC(=O)N2[C@@H]3C[C@@H]3C[C@H]2C(=O)Nc2cccc(-c3ccccc3Cl)c2F)c2ccc(-c3cncnc3)cc12 [Compound 15, (1R,3S,5R)-2-(2-(3-acetyl-5-(pyrimidin-5-yl)-1H-indol-1-yl)acetyl)-N-(2′-chloro-2-fluorobiphenyl-3-yl)-2-azabicyclo[3.1.0] hexane-3-carboxamide] | < 1000 nM | – |
| NC(=O)c1nn(CC(=O)N2[C@@H]3C[C@@H]3C[C@H]2C(=O)Nc2cccc(-c3ccccc3Cl)c2F)c2ccc(-c3ncccn3)cc12 [Compound 7, 1-(2-((1R,3S,5R)-3-(2′-chloro-2-fluorobiphenyl-3-ylcarbamoyl)-2-azabicyclo[3.1.0]hexan-2-yl)-2-oxoethyl)-5-(pyrimidin-2-yl)-1H-indazole-3-carboxamide] | < 1000 nM | – |
| Cc1ncc(-c2ccc3c(c2)c(C(N)=O)nn3CC(=O)N2C[C@H](F)C[C@H]2C(=O)Nc2cccc(Br)n2)cn1 [Compound 101, 1-(2-((2S,4R)-2-(6-bromopyridin-2-ylcarbamoyl)-4-fluoropyrrolidin-1-yl)-2-oxoethyl)-5-(2-methylpyrimidin-5-yl)-1H-indazole-3-carboxamide] | < 1000 nM | – |
| CC(=O)c1cn(CC(=O)N2C[C@H](F)C[C@H]2C(=O)Nc2cccc(-c3ccccc3Cl)c2F)c2ccc(N3CCN(S(C)(=O)=O)CC3)cc12 [Compound 33, (2S,4R)-1-(2-(3-acetyl-5-(4-(methylsulfonyl)piperazin-1-yl)-1H-indol-1-yl)acetyl)-N-(2′-chloro-2-fluorobiphenyl-3-yl)-4-fluoropyrrolidine-2-carboxamide] | < 1000 nM | – |
| CC(=O)c1cn(CC(=O)N2C[C@H](F)C[C@H]2C(=O)Nc2cccc(Br)n2)c2ccc(-c3cncnc3)cc12 [Compound 14, (2S,4R)-1-(2-(3-acetyl-5-(pyrimidin-5-yl)-1H-indol-1-yl)acetyl)-N-(6-bromopyridin-2-yl)-4-fluoropyrrolidine-2-carboxamide] | < 1000 nM | – |
| COc1cc(C)cc2c1OCCC2NC(=O)[C@@H]1C[C@@H](F)CN1C(=O)Cn1nc(C(N)=O)c2cc(-c3ccnnc3)ccc21 (stereo partly drawn) [Compound 122, 1-(2-((2S,4R)-4-fluoro-2-(8-methoxy-6-methylchroman-4-ylcarbamoyl)pyrrolidin-1-yl)-2-oxoethyl)-5-(pyridazin-4-yl)-1H-indazole-3-carboxamide] | > 10000 nM | – |
| CC(=O)c1cn(CC(=O)N2C[C@H](F)C[C@H]2C(=O)Nc2cccc(Br)n2)c2ccc(-c3cnc(C#N)nc3)cc12 [Compound 82, (2S,4R)-1-(2-(3-acetyl-5-(2-cyanopyrimidin-5-yl)-1H-indol-1-yl)acetyl)-N-(6-bromopyridin-2-yl)-4-fluoropyrrolidine-2-carboxamide] | < 1000 nM | – |
| CC(=O)c1cn(CC(=O)N2C[C@H](F)C[C@H]2C(=O)Nc2cccc(-c3cc(F)c(F)cc3Cl)c2F)c2ccc(-c3cnc(C)nc3)cc12 [Compound 150, (2S,4R)-1-(2-(3-acetyl-5-(2-methylpyrimidin-5-yl)-1H-indol-1-yl)acetyl)-N-(2′-chloro-2,4′,5′-trifluorobiphenyl-3-yl)-4-fluoropyrrolidine-2-carboxamide] | < 1000 nM | – |
| CC(=O)c1cn(CC(=O)N2C[C@H](F)C[C@H]2C(=O)Nc2cccc3c2CN(c2ccccn2)C3)c2ccc(-c3ccnnc3)cc12 [Compound 105, (2S,4R)-1-(2-(3-acetyl-5-(pyridazin-4-yl)-1H-indol-1-yl)acetyl)-4-fluoro-N-(2-(pyridin-2-yl)isoindolin-4-yl)pyrrolidine-2-carboxamide] | > 10000 nM | – |

— patent publication US9796741B2 (Achillion Pharmaceuticals, Inc., priority 2014, dated 2017)
